≈ marks a conversion by molar mass, not a printed value. One block for each compound: values may come before it.
Key:
Experiment in all cases: ≥ marks a high value that may be exact or a test limit, other limits are often not marked, values filed in µg/mL are converted to µM
[1] = test system: Staphylococcus epidermidis
[2] = test system: Salmonella enterica subsp. enterica serovar Typhimurium ATCC 14028
[3] = test system: Escherichia coli K12 MG1655
[4] = test system: Escherichia coli UTI89
[5] = test system: Candida parapsilosis CBS 604
[6] = test system: Candida krusei CBS 573
[7] = test system: Saccharomyces cerevisiae SZMC 0644
[8] = test system: Candida albicans ATCC 10231
[9] = test system: Penicillium expansum
[10] = test system: Aspergillus niger
[11] = test system: Micrococcus luteus ATCC 49732
[12] = test system: Staphylococcus aureus ATCC 12600
[13] = test system: Escherichia coli ATCC 11775
[14] = test system: Candida albicans ATCC 14053
[15] = test system: Ramulariopsis gossypii
[16] = test system: Candida albicans ATCC 90028
[17] = test system: Pseudomonas aeruginosa ATCC 27853
[18] = test system: Escherichia coli ATCC 25922
[19] = test system: Xanthomonas campestris pv. citri
[20] = test system: Bacillus subtilis ATCC 23857
[21] = test system: Cryptococcus neoformans ATCC 28957
[22] = test system: Acinetobacter baumannii
[23] = test system: Cryptococcus neoformans ATCC 208821
[24] = test system: Acinetobacter baumannii ATCC 19606
[25] = test system: Bacillus subtilis ATCC 6051
[26] = test system: Staphylococcus aureus ATCC 43300
[27] = test system: Klebsiella pneumoniae
[28] = test system: Klebsiella pneumoniae ATCC 13883
[29] = test system: Klebsiella pneumoniae ATCC 700603
[30] = test system: Pseudomonas aeruginosa
[31] = test system: Klebsiella pneumoniae ATCC BAA-2146

MIC [5]: ≥ 76.8 µM
MIC [6]: ≥ 76.8 µM
MIC [7]: ≥ 76.8 µM
MIC [8]: > 76.8 µM
Compound: CC[C@H](C)[C@H](N)C(=O)N[C@@H](C)C(=O)N[C@H](C(=O)N[C@@H](CO)C(=O)N1CCC[C@H]1C(=O)N[C@@H](Cc1ccc(O)cc1)C(=O)N[C@@H](Cc1ccc(O)cc1)C(=O)N[C@@H](C)C(=O)N[C@H]1CSSC[C@@H](C(=O)N2CCC[C@H]2C(=O)O)NC(=O)[C@H](CC(N)=O)NC1=O)[C@@H](C)O [IATSPYYACNCP]

MIC [11]: ≥ 963 µM
MIC [12]: ≥ 107 µM
MIC [13]: ≥ 107 µM
MIC [14]: ≥ 321 µM
Compound: CC(C)[C@H](NC(=O)[C@H](C)NC(=O)[C@@H](NC(=O)CNC(=O)[C@H](C)N)[C@@H](C)O)C(=O)N[C@@H](Cc1ccccc1)C(=O)N[C@@H](CCCCN)C(=O)O [AGTAVFK]

MIC [15]: ≥ 64 µM
MIC [16]: ≥ 64 µM
MIC [17]: 128 µM (≈ 295 µg/mL)
MIC [18]: 26.7 µM (≈ 61.5 µg/mL)
MIC [19]: ≥ 128 µM
MIC [20]: 16 µM (≈ 36.9 µg/mL)
MIC [21]: ≥ 64 µM
Compound: CC[C@H](C)[C@H](NC(=O)[C@H](Cc1ccccc1)NC(=O)[C@@H](NC(=O)[C@H](CCC(N)=O)NC(=O)[C@H](Cc1ccc(O)cc1)NC(=O)[C@H](CCCN=C(N)N)NC(=O)[C@@H](NC(=O)[C@H](CC(C)C)NC(=O)[C@H](CCCCN)NC(=O)[C@H](CCC(N)=O)NC(=O)[C@H](CC(C)C)NC(=O)[C@H](CCC(=O)O)NC(=O)[C@H](CCCCN)NC(=O)[C@H](Cc1ccccc1)NC(=O)[C@H](CC(C)C)NC(=O)[C@H](CC(C)C)NC(=O)CN)[C@@H](C)CC)[C@@H](C)CC)C(=O)NCC(=O)N[C@@H](CCCCN)C(N)=O [GLLFKELQKLIRYQIFIGK]

Second part, the compound before the results:

Compound: CC[C@H](C)[C@H](NC(=O)[C@H](CCCCN)NC(=O)[C@H](CCC(N)=O)NC(=O)[C@H](Cc1c[nH]c2ccccc12)NC(=O)[C@@H](NC(=O)[C@H](CCCCN)NC(=O)[C@@H](N)CCCCN)[C@@H](C)CC)C(=O)N[C@@H](CCCCN)C(=O)N[C@@H](CC(N)=O)C(=O)N[C@@H](Cc1ccccc1)C(=O)N[C@@H](Cc1ccccc1)C(=O)N[C@@H](CCC(N)=O)C(=O)N[C@@H](CCCCN)C(=O)N[C@@H](CC(C)C)C(=O)O [KKIWQKIKNFFQKL]
MIC [1]: 29 µM (≈ 53.6 µg/mL)
MIC [2]: 50 µM (≈ 92.5 µg/mL)
MIC [3]: 6.25 µM (≈ 11.6 µg/mL)
MIC [4]: 6.25 µM (≈ 11.6 µg/mL)

Compound: CC[C@H](C)[C@H](NC(=O)[C@@H]1CSSC[C@H](NC(=O)[C@H](CCCCN)NC(=O)CNC(=O)[C@H](CO)NC(=O)[C@@H](NC(=O)[C@@H](NC(=O)[C@H](CCCCN)NC(=O)[C@H](CO)NC(=O)[C@H](CCCCN)NC(=O)[C@H](CC(=O)O)NC(=O)[C@H](CO)NC(=O)[C@@H]2CCCN2C(=O)CNC(=O)[C@H](CO)NC(=O)[C@H](Cc2cnc[nH]2)NC(=O)[C@H](Cc2ccc(O)cc2)NC(=O)[C@@H](N)CCCCN)C(C)C)[C@@H](C)CC)C(=O)N[C@@H](CCC(=O)O)C(=O)N[C@@H](Cc2c[nH]c3ccccc23)C(=O)N[C@@H](CCC(N)=O)C(=O)NCC(=O)NCC(=O)N[C@@H](CCC(N)=O)C(=O)N[C@@H](CC(C)C)C(=O)N[C@@H](CC(N)=O)C(=O)N1)C(=O)N[C@@H](C)C(=O)N[C@H](C(=O)O)[C@@H](C)O [KYHSGPSDKSKVISGKCEWQGGQLNCIAT]
MIC [5]: ≥ 32 µM
MIC [6]: ≥ 32 µM
MIC [7]: ≥ 32 µM
MIC [8]: > 32 µM

Compound: CC(C)C[C@H](NC(=O)[C@H](Cc1ccccc1)NC(=O)[C@H](CCCN=C(N)N)NC(=O)[C@H](CCCN=C(N)N)NC(=O)[C@H](C)NC(=O)[C@H](Cc1c[nH]c2ccccc12)NC(=O)[C@H](Cc1c[nH]c2ccccc12)NC(=O)[C@H](C)NC(=O)[C@H](CCCN=C(N)N)NC(=O)[C@H](Cc1ccccc1)NC(=O)[C@H](Cc1ccccc1)NC(=O)[C@H](CCCCN)NC(=O)[C@@H](N)CCCCN)C(=O)N[C@@H](CCCCN)C(N)=O [KKFFRAWWARRFLK]
MIC [9]: 6.44 µM (≈ 12.5 µg/mL)
MIC [10]: 6.44 µM (≈ 12.5 µg/mL)

Compound: CC[C@H](C)[C@H](NC(=O)[C@H](CCCCN)NC(=O)[C@H](CCC(N)=O)NC(=O)[C@H](Cc1c[nH]c2ccccc12)NC(=O)[C@@H](NC(=O)[C@H](CCCCN)NC(=O)[C@@H](N)CCCCN)[C@@H](C)CC)C(=O)N[C@@H](CCCCN)C(=O)N[C@@H](CCCN=C(N)N)C(=O)N[C@@H](Cc1ccccc1)C(=O)N[C@@H](Cc1ccccc1)C(=O)N[C@@H](CCC(N)=O)C(=O)N[C@@H](CCCCN)C(=O)N[C@@H](CC(C)C)C(=O)O [KKIWQKIKRFFQKL]
MIC [1]: 7.5 µM (≈ 14.2 µg/mL)
MIC [2]: 50 µM (≈ 94.6 µg/mL)
MIC [3]: ≥ 50 µM
MIC [4]: ≥ 50 µM

Compound: CC[C@H](C)[C@@H]1NC(=O)CNC(=O)[C@H](CCCN=C(N)N)NC(=O)[C@H](Cc2ccc(O)cc2)NC(=O)[C@H](CO)NC(=O)[C@H](C(C)C)NC(=O)[C@H](CCCN=C(N)N)NC(=O)[C@H](Cc2ccccc2)NC(=O)[C@@H](NC(=O)[C@H](Cc2c[nH]c3ccccc23)NC(=O)[C@@H](N)CCCCN)CSSC[C@@H](C(=O)N[C@@H](CCCN=C(N)N)C(=O)O)NC(=O)[C@H](CCCN=C(N)N)NC(=O)[C@H](CCCN=C(N)N)NC(=O)[C@H](Cc2ccc(O)cc2)NC(=O)[C@H](C)NC1=O [KWCFRVSYRGIAYRRCR]
MIC [22]: 0.45 µM (≈ 0.999 µg/mL)
MIC [23]: 0.225 µM (≈ 0.5 µg/mL)
MIC [24]: 0.225 µM (≈ 0.5 µg/mL)
MIC [16]: 0.901 µM (≈ 2 µg/mL)
MIC [25]: 0.0563 µM (≈ 0.125 µg/mL)
MIC [17]: 3.6 µM (≈ 7.99 µg/mL)
MIC [26]: 7.21 µM (≈ 16 µg/mL)
MIC [27]: 7.21 µM (≈ 16 µg/mL)
MIC [18]: 0.45 µM (≈ 0.999 µg/mL)
MIC [28]: 1.8 µM (≈ 4 µg/mL)
MIC [29]: 7.21 µM (≈ 16 µg/mL)
MIC [30]: 7.21 µM (≈ 16 µg/mL)
MIC [31]: 3.6 µM (≈ 7.99 µg/mL)

Compound: CC[C@H](C)[C@@H]1NC(=O)CNC(=O)[C@H](CCCN=C(N)N)NC(=O)[C@H](Cc2ccc(O)cc2)NC(=O)[C@@H]2CSSC[C@H](NC1=O)C(=O)N[C@@H](Cc1ccc(O)cc1)C(=O)N[C@@H](CCCN=C(N)N)C(=O)N[C@@H](CCCN=C(N)N)C(=O)N[C@H](C(=O)N[C@@H](C)C(=O)O)CSSC[C@H](NC(=O)[C@H](Cc1c[nH]c3ccccc13)NC(=O)[C@@H](N)CCCCN)C(=O)N[C@@H](Cc1ccccc1)C(=O)N[C@@H](CCCN=C(N)N)C(=O)N[C@@H](C(C)C)C(=O)N2 [KWCFRVCYRGICYRRCA]
MIC [22]: 0.0572 µM (≈ 0.125 µg/mL)
MIC [23]: 0.115 µM (≈ 0.25 µg/mL)
MIC [24]: 0.0572 µM (≈ 0.125 µg/mL)
MIC [16]: 1.83 µM (≈ 3.99 µg/mL)
MIC [25]: 0.0069 µM (≈ 0.015 µg/mL)
MIC [17]: 0.115 µM (≈ 0.25 µg/mL)
MIC [26]: 0.229 µM (≈ 0.499 µg/mL)
MIC [27]: 1.83 µM (≈ 3.99 µg/mL)
MIC [18]: 0.0069 µM (≈ 0.015 µg/mL)
MIC [28]: 0.0572 µM (≈ 0.125 µg/mL)
MIC [29]: 0.115 µM (≈ 0.25 µg/mL)
MIC [30]: 0.229 µM (≈ 0.499 µg/mL)
MIC [31]: 0.115 µM (≈ 0.25 µg/mL)

— DBAASP
